Test results as given in patent publication US12503438B2, “Compounds for the treatment of kinase-dependent disorders” (Exelixis, Inc., priority 2019, dated 2025).

Biological target: T1, AXL (Homo sapiens, UniProt P30530)
T1 construct: endogenous in cells; host or cells: A-172 glioblastoma cells (ATCC #CRL-1620)
T1 sequence (P30530 26-894): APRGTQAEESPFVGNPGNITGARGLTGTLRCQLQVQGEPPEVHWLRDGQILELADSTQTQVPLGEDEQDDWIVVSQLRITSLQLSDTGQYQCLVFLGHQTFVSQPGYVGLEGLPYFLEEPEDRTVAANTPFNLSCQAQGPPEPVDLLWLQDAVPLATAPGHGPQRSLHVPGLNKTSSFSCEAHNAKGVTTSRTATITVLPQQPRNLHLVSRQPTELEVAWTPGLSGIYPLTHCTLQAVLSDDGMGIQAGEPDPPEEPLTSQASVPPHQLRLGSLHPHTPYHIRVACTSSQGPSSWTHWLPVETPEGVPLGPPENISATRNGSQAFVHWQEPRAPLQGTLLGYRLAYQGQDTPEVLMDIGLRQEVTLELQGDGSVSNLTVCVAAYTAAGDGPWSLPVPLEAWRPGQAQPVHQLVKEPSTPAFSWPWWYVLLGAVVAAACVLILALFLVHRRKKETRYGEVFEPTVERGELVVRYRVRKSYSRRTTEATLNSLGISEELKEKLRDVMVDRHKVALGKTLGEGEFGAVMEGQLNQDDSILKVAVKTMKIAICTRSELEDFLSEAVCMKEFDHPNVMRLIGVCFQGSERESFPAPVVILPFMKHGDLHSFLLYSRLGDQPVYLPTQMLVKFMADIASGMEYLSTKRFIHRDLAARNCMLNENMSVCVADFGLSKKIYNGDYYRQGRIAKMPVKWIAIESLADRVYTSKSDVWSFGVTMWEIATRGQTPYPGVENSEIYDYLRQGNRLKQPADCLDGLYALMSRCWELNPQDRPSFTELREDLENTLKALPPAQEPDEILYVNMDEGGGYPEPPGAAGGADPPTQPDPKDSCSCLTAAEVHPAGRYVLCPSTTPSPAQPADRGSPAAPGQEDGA
Assay: AXL autophosphorylation ELISA in A-172 cells
Assay type: cell-based
Details: cellular activity, Gas6-stimulated, phospho-AXL ELISA
Method in brief: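 Serum-starved (24 h) A-172 glioblastoma cells got an 8-point compound series (0.3% DMSO) for 1 h, then 1 μg/mL human Gas6 for 15 min. Lysate phospho-AXL quantified by ELISA against phospho-AXL standard, normalized to DMSO and reference-inhibitor controls; IC50 by 4-parameter logistic fit.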

Compound	IC50 [nM]
Cc1cc2c(Oc3ccc(NC(=O)C4(C(=O)Nc5ccc(F)cc5)CC4)cc3)ccnc2cc1-c1cc[nH]n1 [Compound 107, 1-N′-(4-Fluorophenyl)-1-N-[4-[6-methyl-7-(1H-pyrazol-3-yl)quinolin-4-yl]oxyphenyl]cyclopropane-1,1-dicarboxamide]	10 to 100
O=C(Nc1ccc(F)cc1)C1(C(=O)Nc2ccc(Oc3ccnc4cc(-c5ccn(CF)n5)ccc34)cc2)CC1 [Compound 102, 1-N-[4-[7-[1-(Fluoromethyl)pyrazol-3-yl]quinolin-4-yl]oxyphenyl]-1-N′-(4-fluorophenyl)cyclopropane-1,1-dicarboxamide]	10 to 100
O=C(Nc1ccc(F)cc1)C1(C(=O)Nc2ccc(Oc3ccnc4cc(-c5cnn(CF)c5)ccc34)cc2)CC1 [Compound 94, 1-N-[4-[7-[1-(Fluoromethyl)pyrazol-4-yl]quinolin-4-yl]oxyphenyl]-1-N′-(4-fluorophenyl)cyclopropane-1,1-dicarboxamide]	≤ 10
CC(=O)N1CCC(c2ccc3c(Oc4ccc(NC(=O)C5(C(=O)Nc6ccc(F)cc6)CC5)cc4)ccnc3c2)C1 (stereo not drawn) [Compound 92, 1-N-[4-[7-(1-Acetylpyrrolidin-3-yl)quinolin-4-yl]oxyphenyl]-1-N′-(4-fluorophenyl)cyclopropane-1,1-dicarboxamide]	10 to 100
Cc1ccn(-c2ccc3c(Oc4ccc(NC(=O)C5(C(=O)Nc6ccc(F)cc6)CC5)cc4)ccnc3c2)n1 [Compound 91, 1-N′-(4-Fluorophenyl)-1-N-[4-[7-(3-methylpyrazol-1-yl)quinolin-4-yl]oxyphenyl]cyclopropane-1,1-dicarboxamide]	100 to 300
O=C(Nc1ccc(F)cc1)C1(C(=O)Nc2ccc(Oc3ccnc4cc(-c5cc6ccccn6n5)ccc34)cc2)CC1 [Compound 104, 1-N′-(4-Fluorophenyl)-1-N-[4-(7-pyrazolo[1,5-a]pyridin-2-ylquinolin-4-yl)oxyphenyl]cyclopropane-1,1-dicarboxamide]	100 to 300
Nc1cc(-c2ccc3c(Oc4ccc(NC(=O)C5(C(=O)Nc6ccc(F)cc6)CC5)cc4)ccnc3c2)ccn1 [Compound 97, 1-N-[4-[7-(2-Aminopyridin-4-yl)quinolin-4-yl]oxyphenyl]-1-N′-(4-fluorophenyl)cyclopropane-1,1-dicarboxamide]	10 to 100
Cc1cc(-c2ccc3c(Oc4ccc(NC(=O)C5(C(=O)Nc6ccc(F)cc6)CC5)cc4)ccnc3c2)nn1C [Compound 101, 1-N-[4-[7-(1,5-Dimethylpyrazol-3-yl)quinolin-4-yl]oxyphenyl]-1-N′-(4-fluorophenyl)cyclopropane-1,1-dicarboxamide]	10 to 100
Cc1cc2c(Oc3cc(F)c(NC(=O)C4(C(=O)Nc5ccc(F)cc5)CC4)cc3F)ccnc2cc1-c1cnn(C)c1 [Compound 105, 1-N′-[2,5-Difluoro-4-[6-methyl-7-(1-methylpyrazol-4-yl)quinolin-4-yl]oxyphenyl]-1-N-(4-fluorophenyl)cyclopropane-1,1-dicarboxamide]	10 to 100
Cc1cc(-c2ccc3c(Oc4ccc(NC(=O)C5(C(=O)Nc6ccc(F)cc6)CC5)cc4)ccnc3c2)n[nH]1 [Compound 99, 1-N′-(4-Fluorophenyl)-1-N-[4-[7-(5-methyl-1H-pyrazol-3-yl)quinolin-4-yl]oxyphenyl]cyclopropane-1,1-dicarboxamide]	10 to 100
Nc1n[nH]cc1-c1ccc2c(Oc3ccc(NC(=O)C4(C(=O)Nc5ccc(F)cc5)CC4)cc3)ccnc2c1 [Compound 90, 1-N-[4-[7-(3-Amino-1H-pyrazol-4-yl)quinolin-4-yl]oxyphenyl]-1-N′-(4-fluorophenyl)cyclopropane-1,1-dicarboxamide]	10 to 100
Cc1cn(-c2ccc3c(Oc4ccc(NC(=O)C5(C(=O)Nc6ccc(F)cc6)CC5)cc4)ccnc3c2)cn1 [Compound 87, 1-N′-(4-Fluorophenyl)-1-N-[4-[7-(4-methylimidazol-1-yl)quinolin-4-yl]oxyphenyl]cyclopropane-1,1-dicarboxamide]	≤ 10
O=C(Nc1ccc(F)cc1)C1(C(=O)Nc2ccc(Oc3ccnc4cc(-c5ccn(C6CC6)n5)ccc34)cc2)CC1 [Compound 98, 1-N-[4-[7-(1-Cyclopropylpyrazol-3-yl)quinolin-4-yl]oxyphenyl]-1-N′-(4-fluorophenyl)cyclopropane-1,1-dicarboxamide]	10 to 100
CS(=O)(=O)N1CCC(c2ccc3c(Oc4ccc(NC(=O)C5(C(=O)Nc6ccc(F)cc6)CC5)cc4)ccnc3c2)C1 (stereo not drawn) [Compound 93, 1-N′-(4-Fluorophenyl)-1-N-[4-[7-(1-methylsulfonylpyrrolidin-3-yl)quinolin-4-yl]oxyphenyl]cyclopropane-1,1-dicarboxamide]	100 to 300
O=C(Nc1ccc(F)cc1)C1(C(=O)Nc2ccc(Oc3ccnc4cc(C5=CCOC5)ccc34)cc2)CC1 [Compound 95, 1-N-[4-[7-(2,5-Dihydrofuran-3-yl)quinolin-4-yl]oxyphenyl]-1-N′-(4-fluorophenyl)cyclopropane-1,1-dicarboxamide]	10 to 100
Cc1cnn(-c2ccc3c(Oc4ccc(NC(=O)C5(C(=O)Nc6ccc(F)cc6)CC5)cc4)ccnc3c2)c1 [Compound 96, 1-N′-(4-Fluorophenyl)-1-N-[4-[7-(4-methylpyrazol-1-yl)quinolin-4-yl]oxyphenyl]cyclopropane-1,1-dicarboxamide]	100 to 300
O=C(Nc1ccc(F)cc1)C1(C(=O)Nc2ccc(Oc3ccnc4cc(-c5ccccc5)ccc34)cc2)CC1 [Compound 55, 1-N′-(4-Fluorophenyl)-1-N-[4-(7-phenylquinolin-4-yl)oxyphenyl]cyclopropane-1,1-dicarboxamide]	100 to 300
Cc1cc2c(Oc3ccc(NC(=O)C4(C(=O)Nc5ccc(F)cc5)CC4)cc3)ccnc2cc1-c1ccn(C)n1 [Compound 108, 1-N′-(4-Fluorophenyl)-1-N-[4-[6-methyl-7-(1-methylpyrazol-3-yl)quinolin-4-yl]oxyphenyl]cyclopropane-1,1-dicarboxamide]	10 to 100
